Reference: the NIST ThermoML archive (doi:10.1016/j.fluid.2015.07.017)
Numbers after ± are expanded uncertainties.

Tests used:
[1] = Boiling temperature at pressure P; conditions: Liquid, Ebulliometric method (Recirculating still)
[2] = refractive index (Na D-line) (dimensionless); conditions: 298.15 K; 101.33 kPa; Liquid; Standard Abbe refractometry
[3] = 293.15 K; 101.33 kPa; Liquid; Pycnometric method

| Structure (SMILES) | Boiling temperature at pressure P ([1]; 101.33 kPa) [°C] | refractive index [2] | mass density [3] [kg/m3] | Boiling temperature at pressure P ([1]; 8.17 kPa) [°C] | Boiling temperature at pressure P ([1]; 12.41 kPa) [°C] | Boiling temperature at pressure P ([1]; 18.11 kPa) [°C] | Boiling temperature at pressure P ([1]; 26.67 kPa) [°C] | Boiling temperature at pressure P ([1]; 36.4 kPa) [°C] | Boiling temperature at pressure P ([1]; 44.6 kPa) [°C] | Boiling temperature at pressure P ([1]; 53.33 kPa) [°C] | Boiling temperature at pressure P ([1]; 59.35 kPa) [°C] | Boiling temperature at pressure P ([1]; 69.65 kPa) [°C] | Boiling temperature at pressure P ([1]; 79.9 kPa) [°C] | Boiling temperature at pressure P ([1]; 87.9 kPa) [°C] | Boiling temperature at pressure P ([1]; 94.9 kPa) [°C] | Boiling temperature at pressure P ([1]; 112 kPa) [°C] |
| --- | --- | --- | --- | --- | --- | --- | --- | --- | --- | --- | --- | --- | --- | --- | --- | --- |
| CO [methanol] | 64.71 ± 0.1 | 1.3269 ± 0.0007 | 791.1 ± 0.7 | – | – | – | – | – | – | – | – | – | – | – | – | – |
| CCCO [propan-1-ol] | 97.20 ± 0.1 | 1.3836 ± 0.0007 | 803.7 ± 0.7 | – | – | – | – | – | – | – | – | – | – | – | – | – |
| CCCOCOC [1-(methoxymethoxy)propane] | 92.97 ± 0.1 | 1.3757 ± 0.0007 | 841.4 ± 0.8 | 29.97 ± 0.11 | 38.00 ± 0.11 | 46.03 ± 0.1 | 54.81 ± 0.1 | 62.67 ± 0.1 | 68.11 ± 0.1 | 73.17 ± 0.1 | 76.2 ± 0.1 | 81.07 ± 0.1 | 85.2 ± 0.1 | 88.33 ± 0.1 | 90.82 ± 0.1 | 96.14 ± 0.1 |
